Assay results as given in patent publication US20250230193A1, “CYCLIC COMPOUND HAVING SELECTIVE KRAS INHIBITORY EFFECT ON HRAS AND NRAS” (CHUGAI SEIYAKU KABUSHIKI KAISHA, priority 2022, published 2025).
*1 amine or outer side, *2 acyl side, *3 side chain or, on linkers, in order; H or OH if unused. Where a SMILES comes first, the peptide text is derived from it. Bridges are numbered along the chain shown (N, C = ends). [ ]: non-standard residue; d: D form. The star is where a group is joined. hPhe(3-Cl-4-CF3) = N[C@@H](CCc1ccc(C(F)(F)F)c(Cl)c1)C(=O)O; NPrPhe(4-CF3) = CCCN[C@@H](Cc1ccc(C(F)(F)F)cc1)C(=O)O; X5 = CCCN([C@H](C(=O)[*:2])C1CCCC1)[*:1]; NMeGly(cPent) = CN[C@H](C(=O)O)C1CCCC1; Pro(4,4-F2) = O=C(O)[C@@H]1CC(F)(F)CN1; Hyp = O=C(O)[C@@H]1C[C@@H](O)CN1; NMeD = CN[C@@H](CC(=O)O)C(=O)O; NMeL = CN[C@@H](CC(C)C)C(=O)O; Morpholide = C1CN(*)CCO1; Ac5c = NC1(C(=O)O)CCCC1; Aze = O=C(O)[C@@H]1CCN1; Sar = CNCC(=O)O

Experiments:
[1] = target: GDP-bound NRAS wild-type protein (Homo sapiens, UniProt P01111); assay: Binding to NRAS by surface plasmon resonance (SPR), Single Cycle Kinetics; conditions: SPR
[2] = target: GDP-bound HRAS wild-type protein (Homo sapiens, UniProt P01112); assay: Binding to HRAS by surface plasmon resonance (SPR), Single Cycle Kinetics; conditions: SPR
GDP-bound HRAS wild-type protein, sequence (P01112 whole entry): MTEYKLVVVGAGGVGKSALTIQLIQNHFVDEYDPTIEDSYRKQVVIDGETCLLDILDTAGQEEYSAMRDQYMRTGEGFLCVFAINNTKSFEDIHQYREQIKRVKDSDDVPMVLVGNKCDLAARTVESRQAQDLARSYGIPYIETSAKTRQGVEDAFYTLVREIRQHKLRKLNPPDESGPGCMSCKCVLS

GDP-bound NRAS wild-type protein, sequence (P01111 whole entry): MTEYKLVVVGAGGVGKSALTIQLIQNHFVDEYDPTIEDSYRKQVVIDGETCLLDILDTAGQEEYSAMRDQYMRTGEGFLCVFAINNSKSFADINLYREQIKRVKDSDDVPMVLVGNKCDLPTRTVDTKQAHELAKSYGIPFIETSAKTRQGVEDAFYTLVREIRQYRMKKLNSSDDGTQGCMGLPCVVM

Structure (SMILES)	NRAS/KRAS (ratio of KD for GDP-bound NRAS wild-type to KD for KRAS) [1]	HRAS/KRAS (ratio of KD for GDP-bound HRAS wild-type to KD for KRAS) [2]	NRAS/KRAS (ratio of KD value with respect to GDP-bound NRAS wild-type protein to KD value with respect to KRAS) [1]	HRAS/KRAS (ratio of KD value with respect to GDP-bound HRAS wild-type protein to KD value with respect to KRAS) [2]	further results
CCCN1C(=O)CN(C)C(=O)CN(C)C(=O)[C@H]([C@@H](C)CC)NC(=O)[C@H](CC(C)C)N(C)C(=O)C[C@@H](C(=O)N2CCOCC2)N(C)C(=O)[C@H](C2CCCC2)N(C)C(=O)C2(CCCC2)NC(=O)[C@@H]2CCCN2C(=O)[C@H](CCc2ccc(C(F)(F)F)c(Cl)c2)NC(=O)CN(C)C(=O)[C@@H]1C1CCCC1 [PP0061] ([NMeL]I[Sar][Sar][X5][Sar][hPhe(3-Cl-4-CF3)]P[Ac5c][NMeGly(cPent)][NMeD]-Morpholide; lactam N-11)	B (a compound having 3 or more and less than 10 is denoted as B)	C (A compound having a KD ratio of 0.1 or more and less than 3 is denoted as C)			
CCCN1C(=O)[C@@H]2CCN2C(=O)CN(C)C(=O)[C@H]([C@@H](C)CC)NC(=O)[C@H](CC(C)C)N(C)C(=O)C[C@@H](C(=O)N(C)C)N(C)C(=O)[C@H](C2CCCC2)N(C)C(=O)C2(CCCC2)NC(=O)[C@@H]2C[C@@H](OCC)CN2C(=O)[C@H](CCc2ccc(C(F)(F)F)c(Cl)c2)NC(=O)CN(C)C(=O)[C@@H]1Cc1ccc(C(F)(F)F)cc1 [PP0444] ([NMeL]I[Sar][Aze][NPrPhe(4-CF3)][Sar][hPhe(3-Cl-4-CF3)][Hyp](Et)[Ac5c][NMeGly(cPent)][NMeD]-NMe2; lactam N-11)			C (A compound having a KD ratio of 0.1 or more and less than 3 is denoted as C)	C (A compound having a KD ratio of 0.1 or more and less than 3 is denoted as C)	
CCO[C@@H]1C[C@H]2C(=O)NC3(CC(C)(C)C3)C(=O)N(C)[C@@H](C3CCCC3)C(=O)N(C)[C@H](C(=O)N(C)CC)CC(=O)N(C)[C@@H](CC)C(=O)N[C@@H]([C@@H](C)CC)C(=O)N(C)CC(=O)N(C)[C@H]3C/C=C\CCN(C3=O)[C@@H](Cc3ccc(C)cc3)C(=O)N(C)CC(=O)N[C@@H](CCc3ccc(C(F)(F)F)c(OC)c3)C(=O)N2C1 [PP1872]					NRAS/KRAS (ratio of KD value for NRAS to KD value for KRAS) ([1]; KD ratio, GDP-bound NRAS wild-type vs GDP-bound KRAS wild-type): A (a compound having 10 or more and less than 20 is denoted as A); HRAS/KRAS (ratio of KD value for HRAS to KD value for KRAS) ([2]; KD ratio, GDP-bound HRAS wild-type vs GDP-bound KRAS wild-type): A (a compound having 10 or more and less than 20 is denoted as A)
CCC(CC)[C@@H]1NC(=O)[C@H](CC(C)C)N(C)C(=O)C[C@@H](C(=O)N2CCOCC2)N(C)C(=O)[C@H](C2CCCC2)N(C)C(=O)C2(CCCC2)NC(=O)[C@@H]2CCCN2C(=O)[C@H](CCc2cc(F)c(C(F)(F)F)c(F)c2)NC(=O)CN(C)C(=O)[C@H](Cc2ccc(C(F)(F)F)cc2)N2CCCC[C@@H](C2=O)N(C)C(=O)CN(C)C1=O [PP0597]			B (a compound having 3 or more and less than 10 is denoted as B)	B (a compound having 3 or more and less than 10 is denoted as B)	
CC[C@H](C)[C@@H]1NC(=O)[C@H](C)N(C)C(=O)C[C@@H](C(=O)N2CCOCC2)N(C)C(=O)[C@H](C2CCCC2)N(C)C(=O)C2(CCCC2)NC(=O)[C@@H]2CCCN2C(=O)[C@H](CCc2cc(F)c(C(F)(F)F)c(F)c2)NC(=O)CN(C)C(=O)[C@H](Cc2ccc(C(F)(F)F)cc2)N2CCCC[C@@H](C2=O)N(C)C(=O)CN(C)C1=O [PP0549]			C (A compound having a KD ratio of 0.1 or more and less than 3 is denoted as C)	B (a compound having 3 or more and less than 10 is denoted as B)	
CCCN1C(=O)CN(C)C(=O)CN(C)C(=O)[C@H]([C@@H](C)CC)NC(=O)[C@H](CC(C)C)N(C)C(=O)C[C@@H](C(=O)N(C)C)NC(=O)[C@H](C2CCCC2)N(C)C(=O)C2(CCCC2)NC(=O)[C@@H]2CC(F)(F)CN2C(=O)[C@H](CCc2ccc(C(F)(F)F)c(Cl)c2)NC(=O)CN(C)C(=O)[C@@H]1Cc1ccc(C(F)(F)F)cc1 [PP0357] ([NMeL]I[Sar][Sar][NPrPhe(4-CF3)][Sar][hPhe(3-Cl-4-CF3)][Pro(4,4-F2)][Ac5c][NMeGly(cPent)]D-NMe2; lactam N-11)	B (a compound having 3 or more and less than 10 is denoted as B)	B (a compound having 3 or more and less than 10 is denoted as B)			
